Data as given in US12097212B2, “Use of cationic steroidal antimicrobial compounds to deactivate coronavirus” (Brigham Young University, priority 2020, dated 2024).
Read-outs that look alike come from different tables or passages of the source. Marks after values point to notes of the source that are not given here.

Test system: SARS-CoV-2
Type: cell-based
Conditions: 30-minute contact time at 22 ± 2° C.; for Virus (CCID50/0.1 mL): average of 3 replicates ± standard deviation; for LRV (log reduction value): compared to the virus control

| SMILES | Virus (CCID50/0.1 mL) (1 μg/mL) | LRV (log reduction value) (1 μg/mL) [log10] | Virus (CCID50/0.1 mL) (5 μg/mL) | LRV (log reduction value) (5 μg/mL) [log10] | Virus (CCID50/0.1 mL) (25 μg/mL) | LRV (log reduction value) (25 μg/mL) [log10] | Virus (CCID50/0.1 mL) (100 μg/mL) | LRV (log reduction value) (100 μg/mL) [log10] | Virus (CCID50/0.1 mL) (35%) | LRV (log reduction value) (35%) [log10] |
| --- | --- | --- | --- | --- | --- | --- | --- | --- | --- | --- |
| CCCCCCCCOC(=O)CC[C@@H](C)[C@H]1CC[C@H]2[C@@H]3[C@H](OC(=O)CCN)C[C@@H]4C[C@H](OC(=O)CCN)CC[C@]4(C)[C@H]3C[C@H](OC(=O)CCN)[C@]12C [CSA-44HC1] | 4.4 ± 0.12 | 0 | 3.9 ± 0.17 | 0.5 | 0.8 ± 0.19 | 3.6 | 1.2 ± 0.94 CCID50/0.1 mL | 3.2 |  |  |
| CCCCCCCCCCCCNCCC[C@@H](C)[C@H]1CC[C@H]2[C@@H]3[C@H](OCCCN)C[C@@H]4C[C@H](OCCCN)CC[C@]4(C)[C@H]3C[C@H](OCCCN)[C@]12C.Cl.Cl.Cl.Cl [CSA-131HC1] | 4.1 ± 0.40 | 0.3 | 4.1 ± 0.17 | 0.3 | 1.2 ± 0.54 | 3.2 | <1.7**** CCID50/0.1 mL | >2.7 |  |  |
| CCO [Ethanol, reference compound] |  |  |  |  |  |  |  |  | 0.8 ± 0.23 | 3.6 |
